From PMC8391236, “Effect of Pterostilbene, a Natural Derivative of Resveratrol, in the Treatment of Colorectal Cancer through Top1/Tdp1-Mediated DNA Repair Pathway” (Cancers, 2021)

What was measured:
[1] = test system: liver, kidney, lung, and paracancerous colon tissues; experiment: HE staining of organs of orthotopic xenograft mice; type: in vivo; conditions: orthotopic xenograft nude mice
Protocol: The mice were anaesthetized with 10% chloral hydrate and fixed on the operating table. After the abdomen of the mice was disinfected with iodine, a small section of the large intestine was squeezed out of the surgical opening. The 0.1 mL (per mouse) CL187 cell suspension (1 × 10^7 /mL) was inoculated into the colon wall of nude mice. After the inoculation, the large intestine was placed into the mouse abdominal cavity. After the wound was sutured, the mice were put into cages until they naturally woke up. After 10 days of inoculation, the animals were randomly divided into 4 groups (6 mice per group). Vector control group was intraperitoneally injected with 5% DMSO and 95% saline containing 30% HP-β-CD (i.p.). The drug dosage was designed according to the results of the previous pharmacokinetic experiment. Experimental Group 1 was intraperitoneal injected (i.p.) with PTE 100 mg/kg, and experiment Group 2 was intragastric administrated (i.g.) with PTE 500 mg/kg, once a day. The bioavailability of PTE was the same in the animals in the above regimens. Positive control group was injected with irinotecan, 20 mg/kg, twice a week. During the experiment, the changes of body weight of nude mice were recorded. After 21 days, the nude mice were sacrificed, the tumor blocks were removed surgically, weighed, and recorded. Tumor and organ tissues were paraffin-embedded and sectioned into […] after being fixed in 4% of paraformaldehyde solution for 24 h. The sections were deparaffinized and rehydrated before detection. For histological observation, tumor sections were stained with hematoxylin and eosin (HE), and then observed by an inverted microscopy (Olympus, Japan).

Top1 in CL187 cells = Top1 in CL187 cells (Homo sapiens, UniProt P11387); experiment: Intracellular Top1 enzyme activity assay; type: cell-based; set-up: endogenous in cells; host or cells: CL187 cells (nuclear, mitochondrial and cytoplasmic extracts); conditions: CL187 cells treated 6 h; CPT at 50 μM
Protocol: CL187 cells were treated with different concentrations of drugs for 6 h. The supernatant was discarded, and the cells were collected. The extracts of cytoplasm, mitochondria, and nucleus were obtained by the same method as described in Section 2.4.7. The protein concentration of each extract was detected by BCA kit. Enzyme activity reaction was carried out by using 125 ng super helical DNA (pHOT-1) and cell extract. The protein concentration of the extract was guaranteed to be the same in each group. The mixture solution of the pHOT-1 and the cell extract was added into the reaction buffer and incubated for 30 min at 37 °C. The reaction was terminated with loading buffer. The agarose gel electrophoresis was performed, and the images were collected.

Sequence of Top1 in CL187 cells (P11387 2-765): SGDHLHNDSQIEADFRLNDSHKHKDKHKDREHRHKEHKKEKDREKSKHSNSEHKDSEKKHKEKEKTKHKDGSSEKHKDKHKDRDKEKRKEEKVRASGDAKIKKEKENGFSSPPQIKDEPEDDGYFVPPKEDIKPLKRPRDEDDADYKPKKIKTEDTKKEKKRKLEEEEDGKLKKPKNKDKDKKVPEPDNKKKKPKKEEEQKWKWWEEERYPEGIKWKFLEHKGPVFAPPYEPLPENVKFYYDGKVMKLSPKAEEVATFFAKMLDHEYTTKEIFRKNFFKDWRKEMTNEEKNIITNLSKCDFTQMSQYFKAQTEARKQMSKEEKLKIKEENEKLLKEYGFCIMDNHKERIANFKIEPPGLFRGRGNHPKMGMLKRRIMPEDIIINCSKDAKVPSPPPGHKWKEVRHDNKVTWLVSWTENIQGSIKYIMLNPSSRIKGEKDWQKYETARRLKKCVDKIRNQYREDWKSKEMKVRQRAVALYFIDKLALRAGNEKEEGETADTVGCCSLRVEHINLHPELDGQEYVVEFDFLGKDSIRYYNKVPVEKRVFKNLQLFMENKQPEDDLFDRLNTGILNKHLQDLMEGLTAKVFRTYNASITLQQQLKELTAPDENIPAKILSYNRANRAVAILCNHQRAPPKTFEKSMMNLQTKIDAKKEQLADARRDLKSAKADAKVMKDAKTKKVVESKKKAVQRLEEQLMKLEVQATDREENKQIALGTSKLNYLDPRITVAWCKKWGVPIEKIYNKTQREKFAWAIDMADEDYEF

Top1 enzyme activity in the nucleus (Top1 in CL187 cells): significantly inhibited
Structure (SMILES): COc1cc(/C=C/c2ccc(O)cc2)cc(OC)c1 [PTE, 3,5-dimethoxy-4′-hydroxy-trans-stilbene]
effect on lung inflammation (HE sections) [1]: no significant effect on lung inflammation | damage to the liver (HE sections) ([1]; treatment group vs solvent control): caused no additional damage
